Measured values taken from patent US20240384268A1, “Oligonucleotides” (Hudson Institute of Medical Research, priority 2021, published 2024).

Target: T1, human TLR9 (Homo sapiens, UniProt Q9NR96)
T1 construct: HA; host or cells: 293XL-hTLR9-HA (HEK293)
T1 sequence (Q9NR96 26-1032): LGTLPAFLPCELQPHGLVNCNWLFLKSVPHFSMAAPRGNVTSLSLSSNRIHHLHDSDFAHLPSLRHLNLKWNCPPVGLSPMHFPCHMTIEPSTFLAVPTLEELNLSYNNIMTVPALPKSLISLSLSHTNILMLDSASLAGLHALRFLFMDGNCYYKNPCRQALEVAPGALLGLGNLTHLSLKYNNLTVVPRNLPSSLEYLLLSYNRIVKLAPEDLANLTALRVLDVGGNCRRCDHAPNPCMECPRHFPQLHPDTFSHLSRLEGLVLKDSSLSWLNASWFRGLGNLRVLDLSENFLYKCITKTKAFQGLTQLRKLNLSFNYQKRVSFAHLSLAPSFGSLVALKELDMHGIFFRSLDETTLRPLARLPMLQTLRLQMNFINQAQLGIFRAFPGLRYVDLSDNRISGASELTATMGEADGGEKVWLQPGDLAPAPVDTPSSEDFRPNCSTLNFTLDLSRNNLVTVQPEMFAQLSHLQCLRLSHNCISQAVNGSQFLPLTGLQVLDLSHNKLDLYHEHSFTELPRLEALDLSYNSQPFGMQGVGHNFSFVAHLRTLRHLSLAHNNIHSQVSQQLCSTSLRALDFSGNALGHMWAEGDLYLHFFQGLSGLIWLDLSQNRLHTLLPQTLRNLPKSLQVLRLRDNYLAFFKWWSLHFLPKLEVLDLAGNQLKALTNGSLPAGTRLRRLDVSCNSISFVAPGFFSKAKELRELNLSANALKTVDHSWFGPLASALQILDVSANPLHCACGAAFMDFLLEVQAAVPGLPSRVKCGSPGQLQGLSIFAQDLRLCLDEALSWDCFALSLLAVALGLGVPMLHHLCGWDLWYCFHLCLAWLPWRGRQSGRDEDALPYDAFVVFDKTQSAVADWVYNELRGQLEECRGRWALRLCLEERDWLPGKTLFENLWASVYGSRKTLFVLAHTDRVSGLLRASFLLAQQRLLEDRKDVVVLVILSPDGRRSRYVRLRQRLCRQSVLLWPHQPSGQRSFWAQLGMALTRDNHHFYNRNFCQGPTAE
Experiment: HEK-TLR9 NF-κB-luciferase reporter, ODN2006 stimulation
Type: cell-based
Conditions: averaged NF-κB-Luciferase relative to ODN2006 condition; for TLR9 100 nM: MOE-modified ASO at 100 nM; for TLR9 500 nM: MOE-modified ASO at 500 nM

Row | Sequence | TLR9 100 nM | TLR9 500 nM
1 | TCCAACACTTCGTGGGGTCC (antisense; 2'-MOE modified, pattern not given here) [HPRT-667 MOE] | 0.792 | 0.616
2 | AGATCTGGCAGCCCATCAAC (antisense; 2'-MOE modified, pattern not given here) [CTNN2B-2516 MOE] | 0.607 | 0.268
3 | GGGAAAGGTTATGCAAGGTC (antisense; 2'-MOE modified, pattern not given here) [CTNN2B-916 MOE] | 0.521 | 0.505
4 | GGCATCCACCACGTCGTCCA (antisense; 2'-MOE modified, pattern not given here) [EGFR-3266 MOE] | 0.742 | 0.481
5 | CCAACACTTCGTGGGGTCCT (antisense; 2'-MOE modified, pattern not given here) [HPRT-666 MOE] | 0.612 | 0.600
6 | TTGCACACTTCGTACCCAAA (antisense; 2'-MOE modified, pattern not given here) [CAMSAP1-4915 MOE] | 0.894 | 0.524
7 | TCAAAGGACTGAGGAAAGGG (antisense; 2'-MOE modified, pattern not given here) [CAMSAP1-6273 MOE] | 0.265 | 0.040
8 | GGTCCATACCCAAGGCATCC (antisense; 2'-MOE modified, pattern not given here) [CTNN2B-2446 MOE] | 0.687 | 0.453
9 | ATGTGATGGCCTCCCATCTC (antisense; 2'-MOE modified, pattern not given here) [HPRT-333 MOE] | 0.900 | 0.918
10 | GCTTCAGGCGCTGCCTTGCC (antisense; 2'-MOE modified, pattern not given here) [CAMSAP1-2709 MOE] | 0.833 | 0.824
11 | CAATGTGATGGCCTCCCATC (antisense; 2'-MOE modified, pattern not given here) [HPRT-335 MOE] | 0.614 | 0.412
12 | GCGTATTATAGCCGATTAAC (antisense; 2'-MOE modified, pattern not given here) [NC1 2′MOE] | 0.460 | 0.064
13 | GTGTCCTTGCACGTGGCTTC (antisense; 2'-MOE modified, pattern not given here) [EGFR-1015 MOE] | 0.784 | 0.641
14 | TGTGATGGCCTCCCATCTCC (antisense; 2'-MOE modified, pattern not given here) [HPRT-332 MOE] | 0.674 | 0.782
15 | GGAGCTTCGAGGCCCCAGGC (MOE modified, pattern not given here) [MB21D1-616 MOE] | 0.588 | 0.168
16 | ATCCAACACTTCGTGGGGTC (antisense; 2'-MOE modified, pattern not given here) [HPRT-668 MOE] | 0.287 | 0.618
17 | TAGTCAAGGGCATATCCTAC (antisense; 2'-MOE modified, pattern not given here) [HPRT-732 MOE] | 0.787 | 0.462

Row | Sequence | TLR9 100 nM | TLR9 500 nM
18 | GGAGGTCTTGGCTTCGTGGA (antisense; 2'-MOE modified, pattern not given here) [MB21D1-524 MOE] | 0.466 | 0.342
19 | AATCCGCCCAAAGGGAACTG (antisense; 2'-MOE modified, pattern not given here) [HPRT-1027 MOE] | 0.591 | 0.591
20 | GGTGTCCTTGCACGTGGCTT (antisense; 2'-MOE modified, pattern not given here) [EGFR-1016 MOE] | 1.064 | 0.714
21 | GGTGGTGGCCACCCATCTCA (antisense; 2'-MOE modified, pattern not given here) [CTNN2B-2479 MOE] | 0.761 | 0.317
22 | CAAGGCCCTTCGCACTTCTT (antisense; 2'-MOE modified, pattern not given here) [EGFR-1225 MOE] | 0.624 | 0.712
23 | CAACACTTCGTGGGGTCCTT (antisense; 2'-MOE modified, pattern not given here) [HPRT-665 MOE] | 0.858 | 0.619
24 | GCCGCTTTTCTGTCTGGTTC (antisense; 2'-MOE modified, pattern not given here) [CTNN2B-311 MOE] | 0.684 | 1.018
25 | GATGCTCCTCGGTCTCCCTT (antisense; 2'-MOE modified, pattern not given here) [CAMSAP1-1850 MOE] | 0.792 | 0.196
26 | TTGCCATGCTGGCTCGGACT (antisense; 2'-MOE modified, pattern not given here) [CAMSAP1-2584 MOE] | 0.516 | 0.534
27 | TAGGCACTTTGCCTCCTTCT (antisense; 2'-MOE modified, pattern not given here) [EGFR-2859 MOE] | 0.808 | 0.914
28 | AGGTCTTGGCTTCGTGGAGC (antisense; 2'-MOE modified, pattern not given here) [MB21D1-522 MOE] | 0.568 | 0.280
29 | ACAACCCCTTTCACCATCCC (antisense; 2'-MOE modified, pattern not given here) [MB21D1-689 MOE] | 0.785 | 0.499
30 | ATGTCCCGCCACTGGATGCT (antisense; 2'-MOE modified, pattern not given here) [EGFR-727 MOE] | 0.801 | 0.423
31 | GATGGCCTCCCATCTCCTTC (antisense; 2'-MOE modified, pattern not given here) [HPRT-329 MOE] | 0.662 | 1.268
32 | ACCCACTTGGCAGACCATCA (antisense; 2'-MOE modified, pattern not given here) [CTNN2B-1575 MOE] | 0.725 | 0.556
33 | TGTCCTTGCACGTGGCTTCG (antisense; 2'-MOE modified, pattern not given here) [EGFR-1014 MOE] | 0.764 | 0.623
